Test results as given in the supplement of paper PMC13380429.

Tests used:
A549-ACE2 [1] = assay: drug-induced phospholipidosis relative to tamoxifen; higher = more phospholipidosis
[2] = tested on: A549-ACE2 infected with SARS-CoV-2; assay: cell count relative to DMSO; higher = less toxic; conditions: 24 h
Caco-2 [3] = assay: relative viability EC50 (midpoint between 100% and the lowest measured viability); higher = less toxic; conditions: 72 h
Vero E6 [4] = assay: as above; conditions: 72 h
HepG2 [5] = assay: as above; conditions: 72 h
U2OS [6] = assay: as above; conditions: 72 h
Calu-3 [7] = assay: as above; conditions: 72 h
Caco-2 [8] = assay: drug sensitivity score (DSS) for viability; higher = more toxic; extreme values may be limits of the assay; conditions: 72 h
Vero E6 [9] = assay: as above; conditions: 72 h
HepG2 [10] = assay: as above; conditions: 72 h
U2OS [11] = assay: as above; conditions: 72 h
Calu-3 [12] = assay: as above; conditions: 72 h
[13] = tested on: A549-ACE2 infected with SARS-CoV-2; assay: SARS-CoV-2 infection rate relative to DMSO; higher = more infection; conditions: 24 h
Caco-2 [14] = assay: cell viability relative to DMSO; higher = less toxic; conditions: 72 h
Vero E6 [15] = assay: as above; conditions: 72 h
HepG2 [16] = assay: as above; conditions: 72 h
U2OS [17] = assay: as above; conditions: 72 h
Calu-3 [18] = assay: as above; conditions: 72 h
[19] = tested on: A549-ACE2 infected with SARS-CoV-2; assay: morphology score (similarity to uninfected cells); higher = more like uninfected cells; conditions: 24 h
A549-ACE2 [20] = assay: phospholipidosis EC50; higher = less potent phospholipidosis inducer

For `CCC[C@@H]1CC2=CC(=O)CC[C@]2(C)[C@H]2CC[C@@]3(C)[C@@H](CC[C@@]3(O)CCC(=O)O)[C@H]12`, the drug-induced phospholipidosis (A549-ACE2 [1]; 0.3 µM, 24 h) was 2.3%, the drug-induced phospholipidosis (A549-ACE2 [1]; 0.3 µM, 48 h) was 3.88% and the drug-induced phospholipidosis (A549-ACE2 [1]; 0.3 µM, 72 h) was 3.28%. It also gave a drug-induced phospholipidosis (A549-ACE2 [1]; 0.833333 µM, 24 h) of -0.41%, a drug-induced phospholipidosis (A549-ACE2 [1]; 0.833333 µM, 48 h) of 0.27% and a drug-induced phospholipidosis (A549-ACE2 [1]; 0.833333 µM, 72 h) of -0.65%. It also gave a drug-induced phospholipidosis (A549-ACE2 [1]; 3.33333 µM, 24 h) of -0.2%, a drug-induced phospholipidosis (A549-ACE2 [1]; 3.33333 µM, 48 h) of -1.07% and a drug-induced phospholipidosis (A549-ACE2 [1]; 3.33333 µM, 72 h) of -0.652%. For the same compound, the drug-induced phospholipidosis (A549-ACE2 [1]; 6.66667 µM, 24 h) was 0.45%, the drug-induced phospholipidosis (A549-ACE2 [1]; 6.66667 µM, 48 h) was 1.45% and the drug-induced phospholipidosis (A549-ACE2 [1]; 6.66667 µM, 72 h) was 0.565%. It also gave a drug-induced phospholipidosis (A549-ACE2 [1]; 10 µM, 24 h) of 2.66%, a drug-induced phospholipidosis (A549-ACE2 [1]; 10 µM, 48 h) of 3.16% and a drug-induced phospholipidosis (A549-ACE2 [1]; 10 µM, 72 h) of 3.59%. It also gave a drug-induced phospholipidosis (A549-ACE2 [1]; 30 µM, 24 h) of 5.67%, a drug-induced phospholipidosis (A549-ACE2 [1]; 30 µM, 48 h) of 6.48% and a drug-induced phospholipidosis (A549-ACE2 [1]; 30 µM, 72 h) of 9.53%. It also gave a cell count ([2]; 0.3 µM) of 95%, a cell count ([2]; 3 µM) of 103% and a cell count ([2]; 10 µM) of 100%. For the same compound, the cell count ([2]; 30 µM) was 99%, the “relative viability EC50” value (Caco-2 [3]) was > 10 µM and the “relative viability EC50” value (Vero E6 [4]) was > 10 µM. For the same compound, the “relative viability EC50” value (HepG2 [5]) was > 10 µM, the “relative viability EC50” value (U2OS [6]) was > 10 µM and the “relative viability EC50” value (Calu-3 [7]) was > 10 µM. For the same compound, the drug sensitivity score (Caco-2 [8]) was 0, the drug sensitivity score (Vero E6 [9]) was 0 and the drug sensitivity score (HepG2 [10]) was 0. It also gave a drug sensitivity score (U2OS [11]) of 0, a drug sensitivity score (Calu-3 [12]) of 0 and an SARS-CoV-2 infection rate ([13]; 0.3 µM) of 98%. It also gave an SARS-CoV-2 infection rate ([13]; 3 µM) of 105%, an SARS-CoV-2 infection rate ([13]; 10 µM) of 97% and an SARS-CoV-2 infection rate ([13]; 30 µM) of 96%. The cell viability (Caco-2 [14]; 1 nM) was 87.4%, the cell viability (Caco-2 [14]; 10 nM) was 98.4% and the cell viability (Caco-2 [14]; 100 nM) was 95.7%. The cell viability (Caco-2 [14]; 1000 nM) was 94.9%, the cell viability (Caco-2 [14]; 10000 nM) was 89.8% and the cell viability (Vero E6 [15]; 1 nM) was 94.6%. It also gave a cell viability (Vero E6 [15]; 10 nM) of 91%, a cell viability (Vero E6 [15]; 100 nM) of 97.6% and a cell viability (Vero E6 [15]; 1000 nM) of 89.1%. It also gave a cell viability (Vero E6 [15]; 10000 nM) of 95.4%, a cell viability (HepG2 [16]; 1 nM) of 87.5% and a cell viability (HepG2 [16]; 10 nM) of 105%. It also gave a cell viability (HepG2 [16]; 100 nM) of 93.3%, a cell viability (HepG2 [16]; 1000 nM) of 92% and a cell viability (HepG2 [16]; 10000 nM) of 101%. It also gave a cell viability (U2OS [17]; 1 nM) of 98.9%, a cell viability (U2OS [17]; 10 nM) of 98.3% and a cell viability (U2OS [17]; 100 nM) of 97.2%. It also gave a cell viability (U2OS [17]; 1000 nM) of 100%, a cell viability (U2OS [17]; 10000 nM) of 93.8% and a cell viability (Calu-3 [18]; 1 nM) of 101%. For the same compound, the cell viability (Calu-3 [18]; 10 nM) was 92.5%, the cell viability (Calu-3 [18]; 100 nM) was 100% and the cell viability (Calu-3 [18]; 1000 nM) was 98.5%. It also gave a cell viability (Calu-3 [18]; 10000 nM) of 102%, a morphology score ([19]; 0.3 µM) of 0.12 and a morphology score ([19]; 3 µM) of -0.07. The morphology score ([19]; 10 µM) was 0.07 and the morphology score ([19]; 30 µM) was 0.1.

`Nc1nc(NC[C@H]2CC[C@H](CNS(=O)(=O)c3cccc4ccccc34)CC2)nc2ccccc12` gave a drug-induced phospholipidosis (A549-ACE2 [1]; 0.3 µM, 24 h) of 4.45%, a drug-induced phospholipidosis (A549-ACE2 [1]; 0.3 µM, 48 h) of 5.61% and a drug-induced phospholipidosis (A549-ACE2 [1]; 0.3 µM, 72 h) of 6.01%. The drug-induced phospholipidosis (A549-ACE2 [1]; 0.833333 µM, 24 h) was 16.1%, the drug-induced phospholipidosis (A549-ACE2 [1]; 0.833333 µM, 48 h) was 11.2% and the drug-induced phospholipidosis (A549-ACE2 [1]; 0.833333 µM, 72 h) was 9.91%. It also gave a drug-induced phospholipidosis (A549-ACE2 [1]; 3.33333 µM, 24 h) of 78.1%, a drug-induced phospholipidosis (A549-ACE2 [1]; 3.33333 µM, 48 h) of 82% and a drug-induced phospholipidosis (A549-ACE2 [1]; 3.33333 µM, 72 h) of 62.8%. For the same compound, the drug-induced phospholipidosis (A549-ACE2 [1]; 6.66667 µM, 24 h) was 111%, the drug-induced phospholipidosis (A549-ACE2 [1]; 6.66667 µM, 48 h) was 124% and the drug-induced phospholipidosis (A549-ACE2 [1]; 6.66667 µM, 72 h) was 129%. For the same compound, the drug-induced phospholipidosis (A549-ACE2 [1]; 10 µM, 24 h) was 51.3%, the drug-induced phospholipidosis (A549-ACE2 [1]; 30 µM, 24 h) was 58.3% and the “phospholipidosis EC50” value (A549-ACE2 [20]; 24 h) was 1.03 µM. The “phospholipidosis EC50” value (A549-ACE2 [20]; 48 h) was 3.12 µM, the “phospholipidosis EC50” value (A549-ACE2 [20]; 72 h) was 6.11 µM and the cell count ([2]; 0.1 µM) was 105%. It also gave a cell count ([2]; 0.3 µM) of 101%, a cell count ([2]; 1 µM) of 101% and a cell count ([2]; 3 µM) of 123%. For the same compound, the “relative viability EC50” value (Caco-2 [3]) was 2.71 µM, the “relative viability EC50” value (Vero E6 [4]) was 2.44 µM and the “relative viability EC50” value (HepG2 [5]) was 2.06 µM. The “relative viability EC50” value (U2OS [6]) was 2.92 µM, the “relative viability EC50” value (Calu-3 [7]) was 3.03 µM and the drug sensitivity score (Caco-2 [8]) was 5.6. The drug sensitivity score (Vero E6 [9]) was 6.7, the drug sensitivity score (HepG2 [10]) was 7.8 and the drug sensitivity score (U2OS [11]) was 5.8. The drug sensitivity score (Calu-3 [12]) was 5.8, the SARS-CoV-2 infection rate ([13]; 0.1 µM) was 101% and the SARS-CoV-2 infection rate ([13]; 0.3 µM) was 95%. The SARS-CoV-2 infection rate ([13]; 1 µM) was 90%, the SARS-CoV-2 infection rate ([13]; 3 µM) was 12% and the cell viability (Caco-2 [14]; 1 nM) was 102%. It also gave a cell viability (Caco-2 [14]; 10 nM) of 97.4%, a cell viability (Caco-2 [14]; 100 nM) of 93.8% and a cell viability (Caco-2 [14]; 1000 nM) of 95%. The cell viability (Caco-2 [14]; 10000 nM) was 12.7%, the cell viability (Vero E6 [15]; 1 nM) was 97% and the cell viability (Vero E6 [15]; 10 nM) was 95.8%. It also gave a cell viability (Vero E6 [15]; 100 nM) of 99.9%, a cell viability (Vero E6 [15]; 1000 nM) of 91.6% and a cell viability (Vero E6 [15]; 10000 nM) of 4%. For the same compound, the cell viability (HepG2 [16]; 1 nM) was 98.2%, the cell viability (HepG2 [16]; 10 nM) was 99.6% and the cell viability (HepG2 [16]; 100 nM) was 101%. The cell viability (HepG2 [16]; 1000 nM) was 86.3%, the cell viability (HepG2 [16]; 10000 nM) was 0.8% and the cell viability (U2OS [17]; 1 nM) was 101%. For the same compound, the cell viability (U2OS [17]; 10 nM) was 101%, the cell viability (U2OS [17]; 100 nM) was 98.5% and the cell viability (U2OS [17]; 1000 nM) was 96.8%. The cell viability (U2OS [17]; 10000 nM) was 3.6%, the cell viability (Calu-3 [18]; 1 nM) was 89.3% and the cell viability (Calu-3 [18]; 10 nM) was 95.8%. It also gave a cell viability (Calu-3 [18]; 100 nM) of 98.8%, a cell viability (Calu-3 [18]; 1000 nM) of 98.1% and a cell viability (Calu-3 [18]; 10000 nM) of 0.9%. The morphology score ([19]; 0.1 µM) was 0.06, the morphology score ([19]; 0.3 µM) was -0.01 and the morphology score ([19]; 1 µM) was 0.19. For the same compound, the morphology score ([19]; 3 µM) was 0.63.
